US9572786B2, “Use of capsiate or dihydrocapsidate” (Catholic University Industry Academy Cooperation Foundation, priority 2007, dated 2017)

What was measured:
[1] = test system: TNF-α; experiment: UV-induced TNF-α mRNA in hairless mouse skin, RT-PCR; format: in vivo; details: 200 μL of 1 mM topically 1 hour before UV 5 kJ/m^2 once, 6 hours later
Procedure: In order to investigate the effect of capsiate on the production of IL-6 and TNF-α induced in skin tissue during inflammatory response, the inhibition ability of capsiate against the expression of the pro-inflammatory cytokines was evaluated in animal model as follows. Test groups were as follows: non-treated group—treated with acetone only without UV irradiation; test group A—treated with 200 μL of 1 mM capsiate dissolved in acetone without UV irradiation; UV group—treated with acetone and UV; test group B—treated with 200 μL of 1 mM capsiate dissolved in acetone followed by UV irradiation 1 hour later.
To this end, acetone and capsiate were treated prior to UV irradiation. After treating with UV once at an intensity of 5 kJ/m^2, hairless mouse was euthanized 6 hours later. mRNA was extracted from the mouse tissue obtained by skin biopsy and RT-PCR was carried out as follows. For RNA extraction from the tissue, each mouse tissue obtained by skin biopsy was quickly frozen in liquid nitrogen and ground finely using a mortar. RNA was extracted from the mouse tissue using Trizol (Invitrogen, USA), and PCR (PTC-225 Peltier thermal cycler, MJ Research, USA) was carried out using it as template and using a commercial kit (reverse transcription system, Qiagen, USA). As a result, cDNA was prepared from each group. […]

[2] = test system: Ki67; experiment: Ki67 expression in mouse skin, immunohistochemical staining; format: in vivo; details: mouse skin tissue of Example 5
Procedure: In order to investigate the effect of capsiate on various intracellular angiogenesis-related expression factors, the inhibition effect of capsiate on angiogenesis factors induced by UV was evaluated using the mouse tissue of Example 5.
Mouse skin tissue obtained by skin biopsy was immersed in OCT compound (Sakura Finetechnical Co. Ltd, Japan) and slowly frozen in liquid nitrogen. Thus prepared tissue was sliced with a thickness of 7 μm and fixed on a slide using acetone. The tissue was washed with distilled water and PBS and, after blocking for 1 hour using 10% normal goat serum, incubated at 4° C. for at least 16 hours using ki67 antibody (1:100, Neomarker, USA). After washing 3 times with PBS, the tissue was treated with Alexa 488-conjugated secondary antibody (Invitrogen, USA) for 30 minutes and then washed 3 times. The tissue was mounted and observed under a fluorescence microscope (Carl Zeiss, USA).

[3] = test system: IL-8; experiment: UV-induced pro-inflammatory cytokine mRNA, RT-PCR: IL-8; format: cell-based, human; details: HaCaT cells; 10, 25, 50 μM; UV 100 J/m^2; 4 hours
Procedure: 1×10^6 HaCaT cells were placed on a 100 mm Petri dish and cultured for 24 hours in DMEM containing 10% FBS. Subsequently, the cells were cultured for 24 hours in DMEM containing 1% FBS until starvation. Then, after treating with capsiate at different concentrations (10 μM, 25 μM, 50 μM) for 30 minutes, followed by washing 3 times with PBS, UV was irradiated at an intensity of 100 J/m^2 to induce the production of cytokines. Immediately after the UV irradiation, the cells were washed again with PBS and further cultured for 4 hours in DMEM containing 1% FBS, which was treated with capsiate at the same concentration as in the pre-treatment.
Then, the degree of mRNA expression for IL-6, IL-8 and TNF-α induced mainly in the skin by the UV irradiation was evaluated by RT-PCR in order to measure the inhibition effect against the pro-inflammatory cytokines.
RNAs were extracted from the cells of each test group using Trizol (Invitrogen, USA) and used as template for PCR (PTC-225 Peltier thermal cycler, MJ Research, USA) to prepare cDNAs for each test group. Using the resultant cDNAs as template, the degree of mRNA expression for IL-6, IL-8 and TNF-α was measured by RT-PCR (Roter Gene 6000 series, Corbett Research, Australia) using commercial IL-6, IL-8 and TNF-α primers. […]

[4] = test system: p38; experiment: MAPK signaling after UV, Western blotting: p38; format: cell-based, human; details: HaCaT cells; 10, 25, 50 μM; 30 minutes after UV irradiation
Procedure: Western blotting was performed in the same manner as in Example 2-1 in order to identify the factor that affects the COX-2 expression regulated by capsiate, except for treating the cells with capsiate at different concentrations (10 μM, 25 μM and 50 μM) prior to UV irradiation, and using rabbit anti-ERK antibody, rabbit anti-p-ERK antibody, rabbit anti-p38 antibody, rabbit anti-p-p38 antibody, rabbit anti-JNK antibody and rabbit anti-p-JNK antibody (cell signaling), and anti-rabbit IgG-HRP conjugation antibody (Zymed) as the secondary antibody, 30 minutes after UV irradiation.

COc1cc(COC(=O)CCCC/C=C/C(C)C)ccc1O [capsiate]
UV-induced expression of TNF-α (mRNA) in skin tissue [1]: decrease
expression of Ki67 increased by UV [2]: significantly inhibited
expression of IL-8 (mRNA) increased by UV irradiation [3]: significantly decreases
p38 (phosphorylation) [4]: no particular change
